# Measurements as given in DBAASP.
# Experiments:
# Assay in all cases: ≥ marks a high value that may be exact or a test limit, other limits are often not marked, values filed in µg/mL are converted to µM
# Trichoderma harzianum = test system: Trichoderma harzianum
# Pachysolen tannophilus = test system: Pachysolen tannophilus
# Kluyveromyces marxianus = test system: Kluyveromyces marxianus
# Fusarium oxysporum = test system: Fusarium oxysporum
# Aspergillus niger = test system: Aspergillus niger
# Candida albicans = test system: Candida albicans
# Escherichia coli TOP 10 = test system: Escherichia coli TOP 10
# Staphylococcus aureus = test system: Staphylococcus aureus
# [1] = test system: Staphylococcus aureus ATCC 6538
# Pseudomonas aeruginosa = test system: Pseudomonas aeruginosa
# [2] = test system: Staphylococcus aureus ATCC 12493
# [3] = test system: Klebsiella pneumoniae ATCC BAA-1705
# [4] = test system: Klebsiella pneumoniae ATCC 43816
# [5] = test system: Candida albicans NCYC 1467
# [6] = test system: Klebsiella pneumoniae ATCC BAA-2342
# [7] = test system: Escherichia coli ATCC BAA-2340
# [8] = test system: Enterococcus faecalis NCTC 12697
# [9] = test system: Pseudomonas aeruginosa ATCC 27853
# [10] = test system: Escherichia coli ATCC 8739
# [11] = test system: Pseudomonas aeruginosa ATCC 9027
# [12] = test system: Staphylococcus aureus NCTC 10788
# [13] = test system: Escherichia coli NCTC 10418
# [14] = test system: Mannheimia haemolytica 82-25
# [15] = test system: Salmonella enterica serovar typhimurium MS7953s
# [16] = test system: Pseudomonas aeruginosa K799
# [17] = test system: Salmonella enterica subsp. enterica serovar Typhimurium ATCC 14028s
# Aeromonas salmonicida = test system: Aeromonas salmonicida
# [18] = test system: Pseudomonas aeruginosa Z61
# Vibrio anguillarum = test system: Vibrio anguillarum
# [19] = test system: Staphylococcus epidermidis C621
# [20] = test system: Pseudomonas aeruginosa LMG 6395
# [21] = test system: Klebsiella aerogenes LMG 02094
# [22] = test system: Acinetobacter baumannii LMG 01041
# [23] = test system: Escherichia coli LMG 15862
# [24] = test system: Klebsiella pneumoniae LMG 20218
# [25] = test system: Candida albicans ATCC 10231
# [26] = test system: Staphylococcus aureus ATCC 29231
# [27] = test system: Klebsiella pneumoniae WGLW2
# [28] = test system: Pseudomonas aeruginosa PA14
# [29] = test system: Staphylococcus aureus NCTC 12981
structure (smiles),measurement,setting,value
CC[C@H](C)[C@H](NC(=O)[C@H](CC(C)C)NC(=O)[C@@H](NC(=O)[C@@H](N)CC(=O)O)[C@@H](C)O)C(=O)NCC(=O)N[C@@H](CO)C(=O)N[C@H]1CSSC[C@@H]2NC(=O)[C@H](Cc3cnc[nH]3)NC(=O)CNC(=O)CNC(=O)[C@H](CCCCN)NC(=O)[C@H](Cc3ccc(O)cc3)NC(=O)CNC(=O)[C@H](CCCN=C(N)N)NC(=O)[C@H](CCCN=C(N)N)NC(=O)[C@H](CCCCN)NC(=O)[C@@H]3CSSC[C@@H](C(=O)N[C@@H](CCC(=O)O)C(=O)O)NC(=O)[C@H](Cc4c[nH]c5ccccc45)NC(=O)[C@H](CSSC[C@H](NC(=O)[C@H](CC(=O)O)NC(=O)[C@H](CO)NC(=O)[C@H]([C@@H](C)O)NC(=O)[C@H](Cc4ccc(O)cc4)NC(=O)[C@H](CC(N)=O)NC(=O)[C@H]([C@@H](C)O)NC(=O)[C@H](C)NC(=O)CNC(=O)[C@H](Cc4c[nH]c5ccccc45)NC(=O)[C@H](C(C)C)NC1=O)C(=O)N[C@@H](CC(N)=O)C(=O)N[C@@H](C)C(=O)N[C@@H](CCC(=O)O)C(=O)N3)NC(=O)[C@H](CC(N)=O)NC(=O)[C@H](C(C)C)NC(=O)[C@H](CC(N)=O)NC(=O)[C@H](CC(C)C)NC(=O)[C@H](Cc1ccccc1)NC(=O)[C@H](CO)NC(=O)CNC2=O [DTLIGSCVWGATNYTSDCNAECKRRGYKGGHCGSFLNVNCWCE],MIC,Trichoderma harzianum,4.2 µM
same,MIC,Pachysolen tannophilus,8.5 µM
same,MIC,Kluyveromyces marxianus,8.5 µM
same,MIC,Fusarium oxysporum,16.9 µM
same,MIC,Aspergillus niger,2.1 µM
same,MIC,Candida albicans,8.5 µM
CC[C@H](C)[C@H](NC(=O)[C@@H](N)CCC(=O)O)C(=O)N[C@@H](CCC(=O)O)C(=O)N[C@@H](Cc1ccc(O)cc1)C(=O)NCC(=O)N[C@@H](CC(N)=O)C(=O)N1CCC[C@H]1C(=O)NCC(=O)N[C@H](C(=O)NCC(=O)N[C@H](C(=O)N[C@@H](CC(=O)O)C(=O)N[C@@H](CCCN=C(N)N)C(N)=O)[C@@H](C)O)C(C)C [EIEYGNPGVGTDR],MIC,Escherichia coli TOP 10,≥ 71.1 µM
CC[C@H](C)[C@H](NC(=O)CNC(=O)CNC(=O)[C@H](C)NC(=O)[C@@H](NC(=O)[C@H](CCCCN)NC(=O)[C@@H]1CCCN1C(=O)[C@@H](NC(=O)[C@H](CC(C)C)NC(=O)[C@H](CO)NC(=O)[C@H](CC(C)C)NC(=O)[C@@H](N)Cc1ccccc1)[C@@H](C)CC)[C@@H](C)CC)C(=O)N[C@@H](C)C(=O)N[C@@H](C)C(=O)N[C@@H](CC(C)C)C(=O)N[C@H](C(=O)N[C@@H](CCCCN)C(=O)N[C@@H](CC(N)=O)C(=O)N[C@@H](CC(C)C)C(N)=O)C(C)C [FLSLIPKIAGGIAALVKNL],MIC,Staphylococcus aureus,8 µM
same,MIC,[1],2 µM
same,MIC,Pseudomonas aeruginosa,> 512 µM
same,MIC,[2],4 µM
same,MIC,[3],≥ 256 µM
same,MIC,[4],≥ 64 µM
same,MIC,[5],8 µM
same,MIC,[6],≥ 128 µM
same,MIC,[7],≥ 64 µM
same,MIC,[8],≥ 32 µM
same,MIC,[9],128 µM
same,MIC,[10],≥ 128 µM
same,MIC,[11],256 µM
same,MIC,[12],4 µM
same,MIC,[13],≥ 32 µM
NCCCC[C@H](NC(=O)[C@H](CC(=O)O)NC(=O)[C@H](CC(=O)O)NC(=O)[C@H](CC(=O)O)NC(=O)CN)C(=O)O [GDDDK],MIC,[14],≥ 200 µM
CC(C)C[C@H](NC(=O)[C@H](C)NC(=O)[C@H](C)NC(=O)[C@H](CCCCN)NC(=O)CNC(=O)[C@@H](NC(=O)[C@H](Cc1cnc[nH]1)NC(=O)[C@H](CCCCN)NC(=O)CNC(=O)[C@@H](NC(=O)[C@H](Cc1cnc[nH]1)NC(=O)[C@H](C)NC(=O)[C@H](C)NC(=O)[C@H](CCCCN)NC(=O)[C@H](CCCCN)NC(=O)[C@H](Cc1ccccc1)NC(=O)[C@H](Cc1ccccc1)NC(=O)[C@H](CO)NC(=O)CNC(=O)[C@H](Cc1c[nH]c2ccccc12)NC(=O)CN)C(C)C)C(C)C)C(=O)NCC(=O)N[C@@H](C)C(=O)N[C@@H](C)C(=O)N[C@@H](C)C(=O)N[C@@H](CCCN=C(N)N)C(=O)N[C@@H](CCCN=C(N)N)C(=O)N[C@@H](CCCN=C(N)N)C(=O)N[C@@H](CCCCN)C(=O)O [GWGSFFKKAAHVGKHVGKAALGAAARRRK],MIC,[15],0.163 µM
same,MIC,[16],5.22 µM
same,MIC,[17],5.22 µM
same,MIC,Aeromonas salmonicida,0.326 µM
same,MIC,[18],5.22 µM
same,MIC,Vibrio anguillarum,10.4 µM
same,MIC,[19],5.22 µM
CC[C@H](C)[C@H](NC(=O)[C@H](CCCN=C(N)N)NC(=O)[C@H](CCC(N)=O)NC(=O)[C@@H](NC(=O)[C@@H](NC(=O)[C@@H](N)CCCCN)[C@@H](C)CC)C(C)C)C(=O)N[C@@H](CCCCN)C(=O)N[C@@H](CCCCN)C(=O)N[C@@H](Cc1c[nH]c2ccccc12)C(=O)N[C@@H](CC(C)C)C(=O)N[C@@H](CCCN=C(N)N)C(N)=O [KIVQRIKKWLR],MIC,[20],16 µM
same,MIC,[21],≥ 256 µM
same,MIC,[22],≥ 128 µM
same,MIC,[23],16 µM
same,MIC,[24],≥ 32 µM
CC[C@H](C)[C@H](NC(=O)[C@H](CCCCN)NC(=O)[C@H](CCCCN)NC(=O)[C@@H](N)CC(C)C)C(=O)NCC(=O)N[C@@H](CCCCN)C(=O)N[C@@H](CCCCN)C(=O)N[C@H](C(=O)N[C@@H](Cc1c[nH]c2ccccc12)C(=O)N[C@@H](CCCN=C(N)N)C(=O)N[C@H](C(=O)NCC(=O)N[C@@H](Cc1c[nH]c2ccccc12)C(=O)N[C@@H](CC(N)=O)C(=O)N[C@H](C(=O)N[C@@H](CCCN=C(N)N)C(=O)N[C@@H](CC(=O)O)C(=O)N[C@@H](C)C(=O)N[C@H](C(=O)N[C@H](C(=O)N[C@@H](CCC(N)=O)C(=O)O)[C@@H](C)CC)[C@@H](C)O)[C@@H](C)O)C(C)C)[C@@H](C)CC [LKKIGKKIWRVGWNTRDATIQ],MIC,[25],> 51 µM
same,MIC,[26],≥ 51 µM
same,MIC,[27],≥ 51 µM
same,MIC,[28],≥ 51 µM
NC(=O)[C@H](CCCN=C(N)N)NC(=O)[C@@H]1CCCN1C(=O)[C@@H]1CCCN1C(=O)[C@H](Cc1c[nH]c2ccccc12)NC(=O)[C@@H]1CCCN1C(=O)[C@@H](N)CCCN=C(N)N [RPWPPR],MIC,[29],≥ 158 µM
same,MIC,[13],≥ 158 µM
